These results are taken from patent KR20230116309A (priority 2022, dated 2023).

The structures appear in SMILES notation. Counter-ions that a name gives are not always drawn. Like-named read-outs stand apart in the source and are kept apart here.

The test system of data set [1] is proteins involved in foot-and-mouth disease virus replication [구제역바이러스의 증식에 관여하는 단백질]. The conditions noted are these: cited from earlier work.
Data set [2] deals with T1, TLR7 (toll-like receptor 7) (Homo sapiens, UniProt Q9NYK1).
T1 sequence (Q9NYK1 27-1049): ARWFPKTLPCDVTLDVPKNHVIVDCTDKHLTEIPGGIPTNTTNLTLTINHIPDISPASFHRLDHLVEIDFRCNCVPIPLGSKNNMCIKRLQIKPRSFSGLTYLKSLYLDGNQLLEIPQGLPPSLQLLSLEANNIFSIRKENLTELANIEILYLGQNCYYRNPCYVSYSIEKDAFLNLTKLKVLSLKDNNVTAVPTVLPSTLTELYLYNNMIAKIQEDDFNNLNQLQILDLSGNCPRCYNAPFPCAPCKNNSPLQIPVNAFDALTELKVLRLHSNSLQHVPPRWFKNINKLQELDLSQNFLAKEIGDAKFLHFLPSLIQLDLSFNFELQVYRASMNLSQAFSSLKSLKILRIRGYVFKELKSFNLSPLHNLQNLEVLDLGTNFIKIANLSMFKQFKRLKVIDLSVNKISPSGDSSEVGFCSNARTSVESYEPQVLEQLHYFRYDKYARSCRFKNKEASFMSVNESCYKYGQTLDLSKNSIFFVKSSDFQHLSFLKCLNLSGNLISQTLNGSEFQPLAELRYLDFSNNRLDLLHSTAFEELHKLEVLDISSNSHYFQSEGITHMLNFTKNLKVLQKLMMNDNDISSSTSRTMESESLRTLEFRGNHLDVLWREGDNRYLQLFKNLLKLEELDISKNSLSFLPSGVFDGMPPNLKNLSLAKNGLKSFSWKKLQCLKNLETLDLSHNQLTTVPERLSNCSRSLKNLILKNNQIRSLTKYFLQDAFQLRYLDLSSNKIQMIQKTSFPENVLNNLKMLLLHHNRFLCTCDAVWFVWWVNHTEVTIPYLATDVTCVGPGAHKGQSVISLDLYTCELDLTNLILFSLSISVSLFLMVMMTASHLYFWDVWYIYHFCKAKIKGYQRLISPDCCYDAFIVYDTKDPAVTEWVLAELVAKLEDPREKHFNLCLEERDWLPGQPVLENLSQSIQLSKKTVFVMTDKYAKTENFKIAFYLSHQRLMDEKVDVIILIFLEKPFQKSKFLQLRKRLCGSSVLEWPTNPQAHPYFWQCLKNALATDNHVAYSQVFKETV
The conditions noted are these: oral administration; cited from earlier work.

In the next data set the test system is IFN-α [인터페론 알파(IFN-α)]. More on the design: species or system Balb/C mouse. The note with it: mouse, in vivo.
In data set [3] the test system is human hepatitis C virus [인간 간염 바이러스 C형(HCV)]. The note with it: cited from earlier work.
The next data set relates to IP-10 [IP-10(CXCL10)]. Also on record: species or system Balb/C mouse. The conditions noted are these: mouse, in vivo.
The test system of another data set is LFBK cells [LFBK 세포]. The data set is described as follows: Cytotoxicity by MTS assay (Test Example 1). It counts as cell-based, porcine. The note with it: no virus, values in Table 1 (missing).
For data set [4], the system named is enterovirus 71 [엔테로바이러스 71(EV71)]. The conditions noted are these: cited from earlier work.
For data set [5], the system named is porcine interferon alpha protein [돼지 인터페론 알파 단백질]. It counts as cell-based.
The test system of data set [6] is foot-and-mouth disease virus O/SKR/Boeun/2017 [O/SKR/Boeun/2017 바이러스]. The format is cell-based.
The test system of data set [7] is chronic hepatitis B virus [B형 만성 간염 바이러스]. The note with it: oral administration, human and laboratory animals; cited from earlier work.
The next data set relates to IL-6. More on the design: species or system Balb/C mouse. The note with it: mouse, in vivo.
A further data set relates to IFN-γ [인터페론 감마(IFN-γ)]. Also on record: species or system Balb/C mouse. The note with it: mouse, in vivo.
The subject of data set [8] is foot-and-mouth disease virus O/SKR/Boeun/2017 [구제역바이러스(O/SKR/Boeun/2017)]. It counts as cell-based.
Another data set concerns IL-12. More on the design: species or system Balb/C mouse. The conditions noted are these: mouse, in vivo.
Data set [9] deals with human immunodeficiency virus [인간면역결핍 바이러스(HIV)]. The conditions noted are these: cited from earlier work.
In data set [10] the test system is foot-and-mouth disease virus O/VIT/2013 [구제역바이러스 O/VIT/2013]. It counts as in vivo, C57BL/6 mouse. The conditions noted are these: for survival rate: 16 h before challenge with 250 LD50, day 7.
Data set [11] concerns interferon-stimulated gene [인터페론-자극 유전자(interferon-stimulated gene; ISG)]. The note with it: oral administration, human and laboratory animals; cited from earlier work.

`N=C(N)N` [구아니딘(Guanidine)-HCl]: the “inhibition of proteins involved in FMDV replication” value (shortened to “inhibition of proteins involved”) in data set [1] is “구제역바이러스의 증식에 관여하는 단백질을 억제”.

With `O=c1cnn([C@@H]2O[C@H](CO)[C@@H](O)[C@H]2O)c(=O)[nH]1` [6-아자우리딘(azauridine)], in [1], the “inhibition of proteins involved” value is “구제역바이러스의 증식에 관여하는 단백질을 억제”.

For the compound `NC(=O)c1ncn([C@@H]2O[C@H](CO)[C@@H](O)[C@H]2O)n1` [리바비린, 리바비린(ribavirin)], the “inhibition of proteins involved” value in data set [1] is reported as “구제역바이러스의 증식에 관여하는 단백질을 억제”.

In the case of `CCCCOc1nc(N)c2c(n1)N(Cc1cccc(CN3CCCC3)c1)CC(=O)N2` [GS-9620, 베사톨리모드(Vesatolimod; GS-9620)], the TLR7 agonist activity entry in data set [2] is reported as “효능제(agonist)로 작용”. The IFN-α induction result in the data set on IFN-α [인터페론 알파(IFN-α)] is on record as “유도되어 나타났다”. Further, the antiviral effect entry in data set [3], in [4] and in [9] was “항바이러스 효과” each time. Moreover, the IP-10 induction entry in the data set with IP-10 [IP-10(CXCL10)] is “신속하게 또한 지속적으로 유도”. Moreover, in the data set with LFBK cells [LFBK 세포], the cytotoxicity entry was “낮은 세포독성”. Further, the IFN-α protein induction result in data set [5] is “IFN-α 단백질을 성공적으로 유도”. For the same compound, in data set [6] (LFBK cells, 24 h pretreatment, 100TCID50 virus, 24 h after inoculation), the “selectivity index (CC50/EC50)” value was around 650.5. In addition, the virus inhibitory effect entry in data set [6] (LFBK cells, MTS assay, values in Table 1 (missing)) was “우수한 바이러스 억제효과”. In addition, in data set [6] (compared with ribavirin), the “selectivity index relative to ribavirin (fold higher)” value was around 5 fold. For the same compound, the “inhibition of hepatitis B virus” value in data set [7] is “B형 만성 간염 바이러스를 억제”. For the same compound, the IL-6 induction result in the data set with IL-6 is recorded as “신속하게 또한 지속적으로 유도”. Also, the IFN-γ induction entry in the data set on IFN-γ [인터페론 감마(IFN-γ)] was “유도되어 나타났다”. For the same compound, in data set [8] (2500~156.2 μM, 24 h pretreatment, 100 TCID50, 48 h), the “FMDV replication inhibitory effect, dose dependence” value is given as “용량에 비례하여 구제역바이러스 증식억제 효과를 발휘”. For the same compound, the “FMDV replication inhibitory effect compared with ribavirin” value in [8] (same concentration, P<0.05, 100 TCID50, 48 h) is recorded as “같은 농도에서 더 우수한 바이러스 증식효과”. Moreover, in the data set on IL-12, the IL-12 induction result is given as “증가가 확인된”. Also, the survival rate in [10] (10 mg/kg i.p.) was 100%; in data set [10] (printed dose 25 mg/kg ('halved'), i.p.), 80%. Besides, the “survival rate (duration of protection)” value in data set [10] (10 mg/kg i.p., up to day 5 after administration (challenge 1, 3, 5 days after dosing, 250 LD50)) was found to be 100%. Further, the “induction of ISG expression” value in data set [11] was “발현을 유도”.
